The values that follow come from ChEMBL document CHEMBL6134907, “Synthesis of 5,9- and 5,8-Diaminoalkoxy Substituted Benzophenanthridinone Analogues as Tyrosyl-DNA Phosphodiesterase 1 Inhibitors and Their Radiosensitizing Activity” (J Med Chem, 2025).

By IC50 is commonly meant the point on the concentration scale where inhibition reaches its midpoint.

The source made the active and inactive calls. No cut-off for these calls is given here.

The target of assay [1] is T1, Tyrosyl-DNA phosphodiesterase 1 (Homo sapiens, UniProt Q9NUW8). The experiment in a line: Inhibition of recombinant TDP1 (unknown origin) assessed as substrate cleavage using 5'-Cy5-GATCTAAAAGACTT-pY-3' DNA substrate at 111 uM measured after 15 mins by gel-based assay.
T1 sequence (Q9NUW8 whole entry): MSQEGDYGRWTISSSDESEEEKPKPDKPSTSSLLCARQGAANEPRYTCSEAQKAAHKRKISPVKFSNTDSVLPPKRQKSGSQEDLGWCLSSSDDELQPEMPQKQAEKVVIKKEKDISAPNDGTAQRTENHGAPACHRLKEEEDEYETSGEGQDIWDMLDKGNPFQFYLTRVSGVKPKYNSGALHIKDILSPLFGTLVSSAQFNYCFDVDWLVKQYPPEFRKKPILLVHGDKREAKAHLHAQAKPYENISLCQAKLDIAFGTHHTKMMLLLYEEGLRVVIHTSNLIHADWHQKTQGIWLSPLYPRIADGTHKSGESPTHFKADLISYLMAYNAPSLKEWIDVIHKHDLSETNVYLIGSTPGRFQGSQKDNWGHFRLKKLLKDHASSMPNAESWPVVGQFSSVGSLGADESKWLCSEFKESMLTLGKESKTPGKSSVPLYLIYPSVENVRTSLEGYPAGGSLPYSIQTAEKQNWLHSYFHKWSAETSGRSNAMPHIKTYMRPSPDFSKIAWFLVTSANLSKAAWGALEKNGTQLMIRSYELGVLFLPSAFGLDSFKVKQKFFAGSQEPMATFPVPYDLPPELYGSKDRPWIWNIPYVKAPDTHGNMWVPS
Assay [2] concerns the target T1, Tyrosyl-DNA phosphodiesterase 1. Kind of assay: Inhibition of recombinant TDP1 (unknown origin) assessed as substrate cleavage using 5'-Cy5-GATCTAAAAGACTT-pY-3' DNA substrate measured after 15 mins by gel-based assay.
Assay [3] relates to HCT-116. Kind of assay: Radiosensitizing activity in human HCT-116 cells assessed as induction of 2 GY ionizing radiation (IR) induced cell killing effect. The format is functional, cell-based.
For assay [4], the system named is HCT-116. Kind of assay: Radiosensitizing activity in human HCT-116 cells assessed as sensitization of 2 GY ionizing radiation (IR) induced cell killing effect at 0.2 uM relative to control. The format is functional.
Assay [5] deals with HCT-116. The experiment in a line: Cytotoxicity against human HCT116 cells assessed as cell killing at 0.2 uM relative to control. Type of assay: functional.
Assay [6] has as its system HCT-116. Kind of assay: Cytotoxicity against human HCT116 cells assessed as cell killing at 0.1 uM relative to control. The format is functional.
Assay [7] deals with HCT-116. The experiment in a line: Synergistic cytotoxicity against human HCT116 cells assessed as combination index at 0.5 uM incubated for 48 hrs in presence of 2GY ionizing radiation (IR). Type of assay: functional.

On to `COc1cc2c(=O)n(CCN(C)C)c3c4cc5c(cc4ccc3c2cc1OCCN1CCSCC1)OCO5`, for which, in assay [1], the inhibition entry is “inactive”.
Same read-out and setting: as for `COc1cc2c(cc1OCCCn1ccnc1)c(=O)n(CCN(C)C)c1c3cc4c(cc3ccc21)OCO4`, the entry is “inactive”; as for `COc1cc2c(=O)n(CCN(C)C)c3c4cc5c(cc4ccc3c2cc1OCCc1ccccc1)OCO5`, “inactive”.
`COc1cc2c(=O)n(CCN(C)C)c3c4cc5c(cc4ccc3c2cc1OCCN1CCCCC1)OCO5`: the half-inhibitory concentration (IC50) in assay [2] was found to be 22 µM.
Same read-out and setting: as for `CCN(CC)CCOc1cc2c(cc1OC)c(=O)n(CCN(C)C)c1c3cc4c(cc3ccc21)OCO4`, the figure is 43 µM.
Regarding `CCN(CC)C(=O)COc1cc2c(cc1OC)c(=O)n(CCN(C)C)c1c3cc4c(cc3ccc21)OCO4`, the inhibition entry in assay [1] is “inactive”.
As to `COc1cc2c(cc1OCCCN1CCCC1)c(=O)n(CCN(C)C)c1c3cc4c(cc3ccc21)OCO4`, the IC50 in assay [2] turned out to be 5.4 µM. Also, the outcome with HCT-116 [3] was Active.
`COc1cc2c(=O)n(CCN(C)C)c3c4cc5c(cc4ccc3c2cc1OCCCN1CCOCC1)OCO5`: in assay [1], the inhibition result was “inactive”.
With `COc1cc2c(=O)n(CCN(C)C)c3c4cc5c(cc4ccc3c2cc1OCCCN1CCCCC1)OCO5`, in assay [2], the IC50 was 6.9 µM.
For `COc1cc2c(cc1OCCn1ccnc1)c(=O)n(CCN(C)C)c1c3cc4c(cc3ccc21)OCO4`, the inhibition entry in assay [1] was “inactive”.
For `COc1cc2c(cc1OCCCN(C)C)c(=O)n(CCN(C)C)c1c3cc4c(cc3ccc21)OCO4`, the IC50 in assay [2] was determined as 9.3 µM. For the same molecule, in the assay on HCT-116 [3], the result was Active.
Take `COc1cc2c(=O)n(CCN(C)C)c3c4cc5c(cc4ccc3c2cc1OCCN1CCN(C)CC1)OCO5`: the IC50 in assay [2] was determined as 6 µM. In the assay on HCT-116 [3], the outcome was Active.
In the case of `COc1cc2c(=O)n(CCN(C)C)c3c4cc5c(cc4ccc3c2cc1OCCN(C)C)OCO5`, the IC50 in assay [2] was 12 µM.
As to `COc1cc2c(=O)n(CCN(C)C)c3c4cc5c(cc4ccc3c2cc1OCCCn1ccnc1)OCO5`, the inhibition entry in assay [1] was “inactive”.
As to `COc1cc2c(cc1OCCCN1CCN(C)CC1)c(=O)n(CCN(C)C)c1c3cc4c(cc3ccc21)OCO4`, in assay [2], the IC50 is 31 µM.
As to `COc1cc2c(=O)n(CCN(C)C)c3c4cc5c(cc4ccc3c2cc1OCC(=O)N(C)C)OCO5`, in assay [1], the inhibition entry was “inactive”.
On to `COc1cc2c(=O)n(CCN(C)C)c3c4cc5c(cc4ccc3c2cc1OCCCc1ccccc1)OCO5`, for which, in assay [1], the inhibition entry is “inactive”.
As to `COc1cc2c(=O)n(CCN(C)C)c3c4cc5c(cc4ccc3c2cc1OCCn1ccnc1)OCO5`, the IC50 in assay [2] worked out at 33 µM.
`COc1cc2c(=O)n(CCN(C)C)c3c4cc5c(cc4ccc3c2cc1OCCCN(C)C)OCO5`: in assay [2], the IC50 turned out to be 4.7 µM. The outcome with HCT-116 [3] was Active.
For the molecule `COc1cc2c(cc1OCCN1CCCC1)c(=O)n(CCN(C)C)c1c3cc4c(cc3ccc21)OCO4`, the IC50 in assay [2] worked out at 29 µM.
For `COc1cc2c(=O)n(CCN(C)C)c3c4cc5c(cc4ccc3c2cc1OCCCNC12CC3CC(CC(C3)C1)C2)OCO5`, the IC50 in assay [2] is 1.6 µM. Further, in the assay on HCT-116 [3], the outcome was Active.
Take `CCN(CC)CCCOc1cc2c(=O)n(CCN(C)C)c3c4cc5c(cc4ccc3c2cc1OC)OCO5`: the IC50 in assay [2] stood at 6.4 µM.
On to `COc1cc2c(cc1OCCCN1CCCCC1)c(=O)n(CCN(C)C)c1c3cc4c(cc3ccc21)OCO4`, for which, in assay [2], the IC50 is 7.4 µM. The outcome in the assay with HCT-116 [3] was Active.
Taken in the same sequence, the figures for `CCN(CC)CCCOc1cc2c(cc1OC)c(=O)n(CCN(C)C)c1c3cc4c(cc3ccc21)OCO4` were 10 µM and “Active”.
For the molecule `COc1cc2c(cc1OCCN(C)C)c(=O)n(CCN(C)C)c1c3cc4c(cc3ccc21)OCO4`, the IC50 in assay [2] is 59 µM.
Take `COc1cc2c(=O)n(CCN(C)C)c3c4cc5c(cc4ccc3c2cc1OCCCN1CCCC1)OCO5`: in assay [2], the 50% inhibitory concentration (IC50) came out at 3.6 µM. Also, the outcome in the assay with HCT-116 [3] was Active.
Consider `COc1cc2c(=O)n(CCN(C)C)c3c4cc5c(cc4ccc3c2cc1OCCCN1CCSCC1)OCO5`, for which the Activity in the assay with HCT-116 [4] is listed as 93%; in the assay with HCT-116 [5] it was 73%; in the assay on HCT-116 [6], 19%. Further, in assay [2], the IC50 was 5.7 µM. Besides, the result in the assay on HCT-116 [3] was Active. Also, the CI with HCT-116 [7] was less than 0.3.
As to `COc1cc2c(cc1OCCN1CCN(C)CC1)c(=O)n(CCN(C)C)c1c3cc4c(cc3ccc21)OCO4`, the IC50 in assay [2] was found to be 46 µM.
As to `COc1cc2c(=O)n(CCN(C)C)c3c4cc5c(cc4ccc3c2cc1OCCN1CCCC1)OCO5`, the inhibition result in assay [1] is “inactive”.
In the case of `COc1cc2c(=O)n(CCN(C)C)c3c4cc5c(cc4ccc3c2cc1OCCCN1CCN(C)CC1)OCO5`, the concentration for half-maximal inhibition (IC50) in assay [2] was determined as 7.8 µM. Further, in the assay with HCT-116 [3], the outcome was Active.
For the molecule `CCCCN(CCCC)CCOc1cc2c(cc1OC)c(=O)n(CCN(C)C)c1c3cc4c(cc3ccc21)OCO4`, in assay [2], the IC50 stood at 23 µM.
On the same count and under the same terms, as for `CCCCN(CCCC)CCCOc1cc2c(cc1OC)c(=O)n(CCN(C)C)c1c3cc4c(cc3ccc21)OCO4`, the figure is 31 µM; as for `CCN(CC)CCOc1cc2c(=O)n(CCN(C)C)c3c4cc5c(cc4ccc3c2cc1OC)OCO5`, 20 µM.
As to `COc1cc2c(cc1OCCN1CCCCC1)c(=O)n(CCN(C)C)c1c3cc4c(cc3ccc21)OCO4`, in assay [2], the IC50 was found to be 16 µM.
With `COc1cc2c(cc1OCCCN1CCOCC1)c(=O)n(CCN(C)C)c1c3cc4c(cc3ccc21)OCO4`, the concentration for half-maximal inhibition (IC50) in assay [2] was determined as 17 µM.
In the case of `COc1cc2c(=O)n(CCN(C)C)c3c4cc5c(cc4ccc3c2cc1OCC(=O)N1CCOCC1)OCO5`, the inhibition result in assay [1] was “inactive”.
Still for that read-out and setting: as for `COc1cc2c(cc1OCCN1CCOCC1)c(=O)n(CCN(C)C)c1c3cc4c(cc3ccc21)OCO4`, the entry is “inactive”.
